In PubChem BioAssay (NCI):
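How tested: cells in 96-well plates exposed to compound for 48 hours at five concentrations. GI50 = concentration required for 50% inhibition of growth. Definition used: TGI = concentration required for complete inhibition of growth.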

What was measured:
Assay in all cases: NCI tumour cell line growth inhibition, 48 h
SK-MEL-5 melanoma = test system: SK-MEL-5 melanoma
CCRF-CEM leukemia = test system: CCRF-CEM leukemia
OVCAR-8 ovarian = test system: OVCAR-8 ovarian
SF-295 CNS = test system: SF-295 CNS
786-0 renal = test system: 786-0 renal
NCI-H23 lung = test system: NCI-H23 lung
MALME-3M melanoma = test system: MALME-3M melanoma
T-47D breast = test system: T-47D breast
MDA-MB-231 breast = test system: MDA-MB-231 breast
HS 578T breast = test system: HS 578T breast

| Compound | TGI (SK-MEL-5 melanoma) [µM] | TGI (CCRF-CEM leukemia) [µM] | TGI (OVCAR-8 ovarian) [µM] | TGI (SF-295 CNS) [µM] | TGI (786-0 renal) [µM] | TGI (NCI-H23 lung) [µM] | TGI (MALME-3M melanoma) [µM] | TGI (T-47D breast) [µM] | TGI (MDA-MB-231 breast) [µM] | TGI (HS 578T breast) [µM] | GI50 (T-47D breast) [µM] | GI50 (MDA-MB-231 breast) [µM] | GI50 (SK-MEL-5 melanoma) [µM] | GI50 (CCRF-CEM leukemia) [µM] | GI50 (HS 578T breast) [µM] | GI50 (SF-295 CNS) [µM] | GI50 (786-0 renal) [µM] | GI50 (NCI-H23 lung) [µM] | GI50 (MALME-3M melanoma) [µM] | GI50 (OVCAR-8 ovarian) [µM] |
| --- | --- | --- | --- | --- | --- | --- | --- | --- | --- | --- | --- | --- | --- | --- | --- | --- | --- | --- | --- | --- |
| CCCCNC(=S)OCCC(C)CCCC(C)C (stereo unspecified) | > 100 | > 100 | > 100 | > 100 | > 100 | > 100 | > 100 |  |  |  |  |  |  |  |  |  |  |  |  |  |
| NC(Cc1c[nH]c2ccc([N+](=O)[O-])cc12)C(=O)O (stereo unspecified) | > 100 | > 100 | > 100 | > 100 | > 100 | > 100 | > 100 | > 100 | > 100 | > 100 |  |  |  |  |  |  |  |  |  |  |
| CC(=O)Nc1cc2cc(NS(=O)(=O)c3ccc(Cl)c(Cl)c3)ccc2oc1=O | 58.6 | > 100 | 31.6 | 44.5 | 32.4 | > 100 |  | 43.5 | 46.2 | 59.7 |  |  |  |  |  |  |  |  |  |  |
| COc1cc(/C=C(\NC(=O)c2ccccc2)c2nc3ncncc3[nH]2)cc(OC)c1OC | > 100 | > 100 | > 100 | > 100 | > 100 | > 100 | > 100 |  |  |  |  |  |  |  |  |  |  |  |  |  |
| N#C/C(=C1\OC(=N)C(c2ccccc2)C1=O)c1ccccc1 (stereo unspecified) | > 64.2 | 48.6 | > 89.2 | > 100 | > 56.8 |  | 36.8 |  |  |  |  |  |  |  |  |  |  |  |  |  |
| COc1ccc(-c2cn(-c3ccc(OC)c(OC)c3)c(=O)[nH]2)cc1 | > 100 | > 100 |  | > 100 | > 100 | > 100 | > 100 | > 100 | > 100 | > 100 | 51.5 | > 100 | 63.3 | > 100 | > 100 | > 100 | > 100 | > 100 | > 100 |  |
| O=C(CCC(=O)Nc1cccc(C(F)(F)F)c1)CC(=O)c1ccc2ccccc2c1 | > 100 | > 100 | > 100 | > 100 | > 100 | > 100 | > 100 |  |  |  |  |  |  |  |  |  |  |  |  |  |
| COc1cc([N+](=O)[O-])c(S(=O)(=O)O)cc1-n1nc(C(=O)Nc2ccccc2)n[n+]1-c1cc(S(=O)(=O)[O-])c([N+](=O)[O-])cc1OC | > 100 | > 100 | > 100 | > 100 | > 100 | > 100 | > 100 |  |  | > 100 |  |  |  |  |  |  |  |  |  |  |
| Nc1nc2c(-c3ccc([N+](=O)[O-])cc3)nnn2c2ccccc12 |  |  | > 100 | > 100 | > 100 | > 100 | > 100 |  |  |  |  |  |  |  |  |  |  |  |  |  |
| NS(=O)(=O)c1ccc(NC(=O)C2C(=O)C(=O)N(c3ccc(S(N)(=O)=O)cc3)C2=O)cc1 (stereo unspecified) | > 100 | > 100 | > 100 | > 100 | > 100 | > 100 | > 100 |  |  |  |  |  |  |  |  |  |  |  |  |  |
| CCOC(=O)c1[nH]c2cc(OC)c(OC)cc2c1CN(C)C | > 100 | > 100 | > 100 | > 100 | > 100 | > 100 | > 100 |  |  |  |  |  |  |  |  |  |  |  |  |  |
| O=C(N=c1nc(NC(=O)c2ccccc2)ss1)c1ccccc1 | 34.7 | > 100 | 82.8 | 70.6 | > 100 | 92.5 | > 100 |  |  |  |  |  |  |  |  |  |  |  |  |  |
| CC(=O)Nc1ccc(S(=O)(=O)N=S(C)C)cc1 |  | > 100 | > 100 | > 100 | > 100 | > 100 | > 100 | > 100 | > 100 | > 100 |  |  |  |  |  |  |  |  |  |  |
| COc1ccc(O)cc1C(O)c1ccccc1 (stereo unspecified) | > 100 | > 100 | > 100 | > 100 | > 100 | > 100 | > 100 |  |  |  |  |  |  |  |  |  |  |  |  |  |
| COc1cc2ncnc(Nc3ccc(Oc4ccnc(C)c4)c(C)c3)c2cc1NC(=O)CC1CCSS1 (stereo unspecified) | 1.99 | 1.69 | > 50 |  | > 50 | 2.5 |  |  | 1.98 | 3.21 |  | 0.895 | 0.974 | 0.253 | 1.12 |  | > 50 | 1.07 |  | 2.19 |
| CC1C=CC(C(N)C(=O)O)O1 (stereo unspecified) | > 100 | > 100 | > 100 | > 100 | > 100 | > 100 | > 100 |  |  |  |  |  |  |  |  |  |  |  |  |  |
| CC(C)COC1Sc2ccccc2S1 |  | > 100 | > 100 | 31.3 | 50 | 53.4 | 57.2 |  |  |  |  |  |  |  |  |  |  |  |  |  |
| CCCCCCCCCCCCCCCC(=O)OCCOCCOCCOCCOCCOC(=O)CCCCCCCCCCCCCCC | > 100 | > 100 | > 100 | > 100 | > 100 | > 100 | > 100 |  |  |  |  |  |  |  |  |  |  |  |  |  |
| O=C1Nc2ccccc2/C1=C\c1nc(-c2ccccc2F)n2ccccc12 | 11.4 | > 100 | 8.12 | 13.7 | 10.1 | 17.3 | 7.22 | 8.11 | 9.07 |  | 2.36 | 2.27 | 2.8 | 91.1 |  | 3.68 | 3.44 | 4.55 | 3.07 | 2.49 |
| CCCCCCCCCCCCN=C(N)c1ccc(N2CCN(c3ccc(C(N)=NCCCCCCCCCCCC)cc3)CC2)cc1 | 21.1 | 10.9 | 40.1 | 18.1 | 15.6 | 15.1 |  | 21.3 | 20 |  | 10.6 | 10.3 | 10.5 | 1.56 |  | 7.66 | 6.23 | 6.2 |  | 11.4 |
| O=C(Nc1ccc(Cl)cc1C(=O)O)c1ccc([N+](=O)[O-])cc1 | 48.7 | 67.4 | > 100 | 51.1 | 34.1 |  | 25.7 |  |  |  |  |  |  |  |  |  |  |  |  |  |
| O=C(Nc1cc(Cl)cc(Cl)c1)c1cccc(NC2=C(Cl)C(=O)N(Cc3ccccc3)C2=O)c1 | 34.8 | > 100 | > 100 | > 100 | > 100 | > 100 | 97.4 | > 100 |  | > 100 | 66.5 |  | 16.6 | 4.09 | 32.7 | 34.2 | 26.8 | 27.8 | 30.7 | 41.7 |
